Laboratory results taken from US20100222269A1, “IMPROVED DERIVATIVES OF AMYLIN” (priority 2007, published 2010).
Positions of bridges follow the written chain, without caps; N, C: chain ends. Non-standard residues stand in square brackets, D forms with d. Residues, ends and D or L forms follow the SMILES beside them. *: point of attachment. C20 diacid = O=C(O)CCCCCCCCCCCCCCCCCCC(=O)*; AEEA = NCCOCCOCC(=O)O

Biological target: T1, Amylin 3(a) receptor (human calcitonin receptor (CTa) with RAMP-3) (Homo sapiens, UniProt O60896+P30988)
T1 construct: expressed in transfected cells; host or cells: BHK570 (baby hamster kidney) cells, stably transfected, with CRE-luciferase reporter
Assay: Amylin luciferase assay (CRE-luciferase reporter in BHK Amylin 3(a)//CRE-luc cells)
Format: cell-based
Conditions: BHK570 cells with human calcitonin receptor (CTa), RAMP-3 and CRE-luciferase reporter; 4 hours incubation; read-out: Potency luciferase assay
How it was run: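 BHK570 cells stably expressing human calcitonin receptor (CTa), RAMP-3 and a CRE-luciferase reporter, about 20.000 cells/well, were exposed to standard or sample for 4 h at 37° C in phenol-red-free DMEM with 10% FBS and 10 mM Hepes pH 7,4. Luminescence was read after 30 min with LucLite at room temperature.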

T1 sequence (O60896 24-148): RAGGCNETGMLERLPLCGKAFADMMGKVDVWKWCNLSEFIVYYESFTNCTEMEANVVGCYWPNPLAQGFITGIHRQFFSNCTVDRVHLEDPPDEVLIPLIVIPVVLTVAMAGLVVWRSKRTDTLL
T1 sequence (P30988 25-474): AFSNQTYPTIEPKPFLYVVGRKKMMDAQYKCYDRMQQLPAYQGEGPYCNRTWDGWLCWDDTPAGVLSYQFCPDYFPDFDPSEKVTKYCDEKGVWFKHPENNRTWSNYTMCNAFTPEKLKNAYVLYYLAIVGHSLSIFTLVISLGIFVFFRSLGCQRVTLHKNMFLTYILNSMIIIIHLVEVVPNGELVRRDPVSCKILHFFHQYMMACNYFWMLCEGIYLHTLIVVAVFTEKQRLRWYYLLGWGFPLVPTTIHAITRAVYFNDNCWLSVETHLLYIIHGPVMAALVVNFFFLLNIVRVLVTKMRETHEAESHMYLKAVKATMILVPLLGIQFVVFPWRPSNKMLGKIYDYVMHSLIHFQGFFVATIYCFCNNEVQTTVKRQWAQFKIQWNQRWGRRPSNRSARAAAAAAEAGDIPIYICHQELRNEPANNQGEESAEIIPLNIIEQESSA

EC50	Compound
0.07 nM	CC[C@H](C)[C@H](NC(=O)[C@@H]1CCCN1C(=O)CNC(=O)[C@H](Cc1ccccc1)NC(=O)[C@H](CC(N)=O)NC(=O)[C@H](CC(N)=O)NC(=O)[C@H](CO)NC(=O)[C@H](CO)NC(=O)[C@H](Cc1c[nH]cn1)NC(=O)[C@@H](NC(=O)[C@H](CC(C)C)NC(=O)[C@H](Cc1ccccc1)NC(=O)[C@H](CC(N)=O)NC(=O)[C@H](C)NC(=O)[C@H](CC(C)C)NC(=O)[C@H](CCCNC(=N)N)NC(=O)[C@H](CCC(N)=O)NC(=O)[C@@H](NC(=O)[C@H](C)NC(=O)[C@@H]1CSSC[C@H](NC(=O)[C@H](CCCNC(=N)N)NC(=O)[C@H](CCCCN)NC(=O)[C@H](CCC(=O)O)NC(=O)CCCCCCCCCCCCCCCCCCC(=O)O)C(=O)N[C@@H](CC(N)=O)C(=O)N[C@@H]([C@@H](C)O)C(=O)N[C@@H](C)C(=O)N[C@@H]([C@@H](C)O)C(=O)N1)[C@@H](C)O)C(C)C)C(=O)N[C@@H](CC(C)C)C(=O)N1CCC[C@H]1C(=O)N1CCC[C@H]1C(=O)N[C@H](C(=O)N[C@@H](CC(N)=O)C(=O)N[C@H](C(=O)NCC(=O)N[C@@H](CO)C(=O)N[C@@H](CC(N)=O)C(=O)N[C@H](C(=O)N[C@@H](Cc1ccc(O)cc1)C(N)=O)[C@@H](C)O)C(C)C)[C@@H](C)O [Example 51, N-alpha-(19-carboxynonadecanoyl)-Glu-Lys-[Arg1]-pramlintide (1-37)] ({C20 diacid}-EKRCNTATCATQRLANFLVHSSNNFGPILPPTNVGSNTY-NH2; disulfide 4-9; C-terminus assumed)
0.4 nM	{C20 diacid}-EER[AEEA]ECNTATCATQRLANFLVHSSNNFGPILPPTNVGSNTY-NH2 (disulfide 6-11; C-terminus assumed) [Example 44, N-alpha-(2-{2-[2-((S)-2-{(S)-4-carboxy-2-[(S)-4-carboxy-2-(19-carboxynonadecanoylamino)butyrylamino]butyrylamino}-5-guanidinopentanoylamino)ethoxy]ethoxy}acetyl)-[Glu1]-pramlintide (1-37)]
